Reference: ChEMBL document CHEMBL5380875, “Discovery of a Potent and Oral Available Complex I OXPHOS Inhibitor That Abrogates Tumor Growth and Circumvents MEKi Resistance” (J Med Chem, 2023)
Active and inactive are the calls of the source. No cut-off for these calls is given here.

How the values were obtained:
A549 [1] = test: Induction of apoptosis in human Trametinib-resistant A549 cells with high-OXPHOS harboring KRAS G12S mutant assessed as late apoptotic cells at 20 nM incubated for 72 hrs by Annexin V-FITC/propidium iodide staining based flow cytometry analysis (reference value: 4.27%); type: functional
[2] = Toxicity in mouse xenografted with human NCI-H460 cells with high-OXPHOS assessed as pathological changes in kidney at 30 mg/kg, po bid administered for 18 days by H and E staining based analysis; type: organism-based; details: in vivo, 432 h, time 18 day
NCI-H460 [3] = test: Potentiation of trametinib-induced antitumor activity against human NCI-H460 cells with high-OXPHOS xenografted in mouse assessed as reduction in tumor weight at 30 mg/kg, po bid administered for 18 days and measured every 3 days by electronic caliper analysis; type: functional, organism-based; details: time 18.0 day
NCI-H441 [4] = test: Potentiation of trametinib-induced cytotoxicity against human NCI-H441 cells with high-OXPHOS harboring KRAS G12V mutant assessed as reduction in cell viability at 10 to 20 uM incubated for 72 hrs by CellTiter 96 cell proliferation assay; type: functional, cell-based; details: dose 10-20 µM
A549 [5] = test: Induction of apoptosis in human Trametinib-resistant A549 cells with high-OXPHOS harboring KRAS G12S mutant assessed as early apoptotic cells at 20 nM incubated for 72 hrs in presence of trametinib by Annexin V-FITC/propidium iodide staining based flow cytometry analysis (reference value: 4.31%); type: functional
[6] = Toxicity in mouse xenografted with human NCI-H460 cells with high-OXPHOS assessed as reduction in serum BUN level at 30 mg/kg, po bid administered for 18 days; type: organism-based; details: in vivo, 432 h, time 18 day
[7] = Cmax in ICR mouse at 1 mg/kg, iv measured for 24 hrs by LC-MS/MS analysis; type: ADME, organism-based; design: dose 1 mg/kg, time 24 hrs, route iv; details: in vivo
A549 [8] = test: Induction of apoptosis in human Trametinib-resistant A549 cells with high-OXPHOS harboring KRAS G12S mutant assessed as early apoptotic cells at 20 nM incubated for 72 hrs by Annexin V-FITC/propidium iodide staining based flow cytometry analysis (reference value: 4.31%); type: functional
NCI-H358 [9] = test: Inhibition of mitochondrial respiration in human NCI-H358 cells with low-OXPHOS assessed as reduction in oxygen consumption rate at 50 to 200 nM incubated for 12 hrs by seahorse XF96 flux analyzer; type: functional, cell-based; details: dose 50-200 nM
NCI-H460 [10] = test: Antitumor activity against human NCI-H460 cells with high-OXPHOS xenografted in mouse assessed as reduction in trametinib-induced oxidative phosphorylation at 30 mg/kg, po bid administered for 18 days; type: functional, organism-based; details: time 18.0 day
[11] = Toxicity in mouse xenografted with human NCI-H460 cells with high-OXPHOS assessed as reduction in serum AST level at 30 mg/kg, po bid administered for 18 days; type: organism-based; details: in vivo, 432 h, time 18 day
NCI-H460 [12] = test: Inhibition of mitochondrial respiration in human NCI-H460 cells with high-OXPHOS assessed as reduction in maximal oxygen consumption rate incubated for 12 hrs by seahorse XF96 flux analyzer; type: functional, cell-based; details: dose 50-200 nM
A549 [13] = test: Induction of apoptosis in human Trametinib-resistant A549 cells with high-OXPHOS harboring KRAS G12S mutant assessed as late apoptotic cells at 20 nM incubated for 72 hrs in presence of trametinib by Annexin V-FITC/propidium iodide staining based flow cytometry analysis (reference value: 4.31%); type: functional
[14] = Tmax in ICR mouse at 1 mg/kg, iv measured for 24 hrs by LC-MS/MS analysis; type: ADME, organism-based; details: in vivo
Cytochrome P450 2C19 = Cytochrome P450 2C19 (Homo sapiens, UniProt P33261); test: Inhibition of CYP2C19 in human liver microsomes; type: ADME, Microsome
Chain of Cytochrome P450 2C19 (P33261 whole entry): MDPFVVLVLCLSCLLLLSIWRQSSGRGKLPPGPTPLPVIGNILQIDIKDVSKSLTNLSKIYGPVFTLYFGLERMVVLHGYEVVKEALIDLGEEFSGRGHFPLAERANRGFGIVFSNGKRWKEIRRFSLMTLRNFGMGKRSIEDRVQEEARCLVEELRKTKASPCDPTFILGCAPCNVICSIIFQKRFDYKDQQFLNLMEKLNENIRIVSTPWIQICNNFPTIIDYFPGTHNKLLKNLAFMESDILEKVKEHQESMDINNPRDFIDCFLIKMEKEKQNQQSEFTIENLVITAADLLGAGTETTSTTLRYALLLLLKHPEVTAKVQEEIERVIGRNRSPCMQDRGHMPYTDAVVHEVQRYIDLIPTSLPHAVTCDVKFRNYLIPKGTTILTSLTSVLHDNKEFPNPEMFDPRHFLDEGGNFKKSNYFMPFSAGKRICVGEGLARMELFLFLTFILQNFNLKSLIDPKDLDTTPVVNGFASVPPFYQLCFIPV

[15] = Toxicity in mouse xenografted with human NCI-H460 cells with high-OXPHOS assessed as pathological changes in lung at 30 mg/kg, po bid administered for 18 days by H and E staining based analysis; type: organism-based; details: in vivo, 432 h, time 18 day
NCI-H460 [16] = test: Induction of apoptosis in human NCI-H460 cells with high-OXPHOS harboring KRAS Q61H mutant assessed as late apoptotic cells at 20 nM incubated for 72 hrs by Annexin V-FITC/propidium iodide staining based flow cytometry analysis (reference value: 5.68%); type: functional
NCI-H441 [17] = test: Inhibition of mitochondrial respiration in human NCI-H441 cells with high-OXPHOS assessed as reduction in basal oxygen consumption rate incubated for 12 hrs by seahorse XF96 flux analyzer; type: functional, cell-based; details: dose 50-200 nM
NCI-H441 [18] = test: Induction of apoptosis in human NCI-H441 cells with high-OXPHOS assessed as early apoptotic cells at 30 nM incubated for 48 hrs by Annexin V-FITC/propidium iodide staining based flow cytometry analysis (reference value: 1.67%); type: functional
NCI-H460 [19] = test: Inhibition of mitochondrial respiration in human NCI-H460 cells with high-OXPHOS assessed as reduction in spare oxygen consumption rate capacity incubated for 12 hrs by seahorse XF96 flux analyzer; type: functional, cell-based; details: dose 50-200 nM
NCI-H460 [20] = test: Inhibition of mitochondrial complex I NADH-ubiquinone oxidoreductase in human NCI-H460 cells at 1 uM incubated for 12 hrs by seahorse XF96 metabolic flux analyzer relative to control; type: cell-based
NCI-H441 [21] = test: Inhibition of mitochondrial respiration in human NCI-H441 cells with high-OXPHOS assessed as reduction in maximal oxygen consumption rate incubated for 12 hrs by seahorse XF96 flux analyzer; type: functional, cell-based; details: dose 50-200 nM
A549 [22] = test: Potentiation of trametinib-induced cytotoxicity against human Trametinib-resistant A549 cells with high-OXPHOS harboring KRAS G12S mutant assessed as reduction in cell viability at 10 to 20 uM incubated for 72 hrs by CellTiter 96 cell proliferation assay; type: functional, cell-based; details: dose 10-20 µM
NCI-H460 [23] = test: Antitumor activity against human NCI-H460 cells with high-OXPHOS xenografted in mouse assessed as reduction in Ki67 expression at 30 mg/kg, po bid administered for 18 days in presence of trametinib by immunohistochemical analysis; type: functional, organism-based; details: time 18.0 day
NCI-H460 [24] = test: Induction of apoptosis in human NCI-H460 cells with high-OXPHOS harboring KRAS Q61H mutant assessed as late apoptotic cells at 20 nM incubated for 72 hrs in presence of trametinib by Annexin V-FITC/propidium iodide staining based flow cytometry analysis (reference value: 5.68%); type: functional
NCI-H460 [25] = test: Inhibition of mitochondrial complex IV in human NCI-H460 cells at 1 uM incubated for 12 hrs by seahorse XF96 metabolic flux analyzer relative to control; type: cell-based
A549 [26] = test: Inhibition of mitochondrial respiration in human Trametinib-resistant A549 cell assessed as reduction in spare oxygen consumption rate capacity at 50 to 200 nM incubated for 12 hrs by seahorse XF96 flux analyzer; type: functional, cell-based; details: dose 50-200 nM
A549 [27] = test: Inhibition of mitochondrial respiration in human Trametinib-resistant A549 cell assessed as reduction in basal oxygen consumption rate at 50 to 200 nM incubated for 12 hrs by seahorse XF96 flux analyzer; type: functional, cell-based; details: dose 50-200 nM
[28] = Toxicity in mouse xenografted with human NCI-H460 cells with high-OXPHOS assessed as reduction in body weight at 30 mg/kg, po bid administered for 18 days in presence of trametinib; type: organism-based; details: in vivo, 432 h, time 18 day
NCI-H358 [29] = test: Antiproliferative activity against human NCI-H358 cells with low-OXPHOS assessed as reduction in cell viability incubated for 5 days by CellTiter 96 cell proliferation assay; type: functional, cell-based; details: NCI-H358, 120 h
A549 [30] = test: Inhibition of mitochondrial respiration in human Trametinib-resistant A549 cell assessed as reduction in maximal oxygen consumption rate at 50 to 200 nM incubated for 12 hrs by seahorse XF96 flux analyzer; type: functional, cell-based; details: dose 50-200 nM

Cmax [7]: 425 ng/mL
Tmax [14]: 4.8 min
IC50 (Cytochrome P450 2C19): > 50 µM
IC50 (NCI-H358 [29]): > 1 µM
Structure (SMILES): Cc1c(C(=O)N2CCN(Cc3ccc(OCC(F)(F)F)cc3)CC2)nnn1Cc1ccc(C(=O)Nc2ccc(C(F)(F)F)cc2)nc1
Activity (A549 [1]): 7.45%
Activity [2]: Non-Toxic
Activity (NCI-H460 [3]): Active
Activity (NCI-H441 [4]): Active
Activity (A549 [5]): 31%
Activity [6]: Non-Toxic
Activity (A549 [8]): 8.57%
inhibition (NCI-H358 [9]): inactive
Activity (NCI-H460 [10]): Active
Activity [11]: Non-Toxic
inhibition (NCI-H460 [12]): Dose-Dependent Effect
Activity (A549 [13]): 43.4%
Activity [15]: Non-Toxic
Activity (NCI-H460 [16]): 16.2%
inhibition (NCI-H441 [17]): Dose-Dependent Effect
Activity (NCI-H441 [18]): 7.88%
inhibition (NCI-H460 [19]): Dose-Dependent Effect
inhibition (NCI-H460 [20]): 77.6%
inhibition (NCI-H441 [21]): Dose-Dependent Effect
Activity (A549 [22]): Active
Activity (NCI-H460 [23]): Active
Activity (NCI-H460 [24]): 34.1%
inhibition (NCI-H460 [25]): 10.4%
inhibition (A549 [26]): Active
inhibition (A549 [27]): Active
Activity [28]: Non-Toxic
inhibition (A549 [30]): Active
